This note sets out measurements from patent publication US10058550B2, “Methods of treating heart failure” (priority 2015, dated 2018).

As usually defined, the EC50 is the concentration that produces a half-maximal response.

human APJ receptor, sequence (P35414 whole entry): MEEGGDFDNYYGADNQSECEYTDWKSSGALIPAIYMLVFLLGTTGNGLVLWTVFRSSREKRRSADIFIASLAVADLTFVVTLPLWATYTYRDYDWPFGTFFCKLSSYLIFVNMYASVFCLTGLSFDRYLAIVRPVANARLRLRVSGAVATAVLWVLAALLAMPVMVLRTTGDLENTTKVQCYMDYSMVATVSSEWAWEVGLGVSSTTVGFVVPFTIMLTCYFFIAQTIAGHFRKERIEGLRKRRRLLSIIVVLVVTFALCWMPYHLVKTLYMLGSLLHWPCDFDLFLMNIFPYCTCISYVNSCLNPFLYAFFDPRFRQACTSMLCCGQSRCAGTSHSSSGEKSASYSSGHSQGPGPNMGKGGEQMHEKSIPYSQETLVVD

The first assay concerns the target human APJ receptor (Homo sapiens (Human), UniProt P35414). Put plainly: biochemical. The following applies: read-out: Activity hAPJ SPA EC50 IP. The class given is biochemical. The essentials:
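Agonist-stimulated [35S]GTPγS (0.2 nM) binding was read by SPA after 90 min at room temperature. Buffer: 20 mM HEPES pH 7.5 with 5 mM MgCl2, 200 mM NaCl, 3 μM GDP, 0.1% BSA; membranes were from a stable human APJ CHO line. EC50 values are averages of independent runs, fitted by non-linear regression.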
For the molecule `COc1cccc(OC)c1-n1c(NS(=O)(=O)[C@H](C)[C@@H](OC)c2ccc(Cl)cn2)nnc1-c1cccnc1` (single isomer, unassigned) [Example 531.0, (1S,2R)-1-(5-chloro-2-pyridinyl)-N-(4-(2,6-dimethoxyphenyl)-5-(3-pyridinyl)-4H-1,2,4-triazol-3-yl)-1-methoxy-2-propanesulfonamide or (1R,2S)-1-(5-chloro-2-pyridinyl)-N-(4-(2,6-dimethoxyphenyl)-5-(3-pyridinyl)-4H-1,2,4-triazol-3-yl)-1-methoxy-2-propanesulfonamide], the EC50 amounted to 0.0002 µM. Same read-out and setting: the same measure for `COc1cnc([C@@H](C)[C@H](C)S(=O)(=O)Nc2nnc(-c3cncc(C)c3)n2-c2c(F)cccc2F)cn1` [Example 794.0, (2S,3R)-N-(4-(2,6-difluorophenyl)-5-(5-methyl-3-pyridinyl)-4H-1,2,4-triazol-3-yl)-3-(5-methoxy-2-pyrazinyl)-2-butanesulfonamide]: 0.0066 µM; for `Cc1cncc(-c2nnc(NS(=O)(=O)[C@@H](C)[C@H](C)c3cnc(C)cn3)n2-c2c(F)cccc2F)c1` [Example 795.0, (2S,3R)-N-(4-(2,6-difluorophenyl)-5-(5-methyl-3-pyridinyl)-4H-1,2,4-triazol-3-yl)-3-(5-methyl-2-pyrazinyl)-2-butanesulfonamide]: 0.03 µM. Still for that read-out and setting: then `Cc1cncc(-c2nnc(NS(=O)(=O)[C@@H](C)[C@H](C)c3ncc(Cl)cn3)n2-c2c(F)cccc2F)c1` [Example 796.0, (2S,3R)-3-(5-chloro-2-pyrimidinyl)-N-(4-(2,6-difluorophenyl)-5-(5-methyl-3-pyridinyl)-4H-1,2,4-triazol-3-yl)-2-butanesulfonamide], with 0.0011 µM; and `COc1ncnc(OC)c1-n1c(NS(=O)(=O)[C@@H](C)[C@H](C)c2cnc(C)cn2)nnc1-c1cccnc1` [Example 806.0, (2S,3R)-N-(4-(4,6-dimethoxy-5-pyrimidinyl)-5-(3-pyridinyl)-4H-1,2,4-triazol-3-yl)-3-(5-methyl-2-pyrazinyl)-2-butanesulfonamide], with 0.019 µM. Turning to `C[C@H](c1ccc(Cl)cn1)[C@H](C)S(=O)(=O)Nc1nnc(-c2cccnc2)n1-c1c(O)nc[nH]c1=O` [Example 810.0, (2S,3R)-3-(5-chloro-2-pyridinyl)-N-(4-(4-hydroxy-6-oxo-1,6-dihydro-5-pyrimidinyl)-5-(3-pyridinyl)-4H-1,2,4-triazol-3-yl)-2-butanesulfonamide], the EC50 stood at 0.77 µM. On the same count and under the same terms, the same measure for `COc1ncnc(OC)c1-n1c(NS(=O)(=O)[C@@H](C)[C@@H](OC(C)C)c2ncc(C)cn2)nnc1-c1cncc(C)c1` [Example 829.0, (1S,2S)-N-(4-(4,6-dimethoxy-5-pyrimidinyl)-5-(5-methyl-3-pyridinyl)-4H-1,2,4-triazol-3-yl)-1-(1-methylethoxy)-1-(5-methyl-2-pyrimidinyl)-2-propanesulfonamide]: 0.0095 µM.

`COc1cccc(-c2nnc(NS(=O)(=O)[C@@H]3CCCN(c4ncc(Cl)cn4)C3)n2-c2c(OC)ncnc2OC)n1` [Example 831.0, (3R)-1-(5-chloro-2-pyrimidinyl)-N-(4-(4,6-dimethoxy-5-pyrimidinyl)-5-(6-methoxy-2-pyridinyl)-4H-1,2,4-triazol-3-yl)-3-piperidinesulfonamide, (3S)-1-(5-chloro-2-pyrimidinyl)-N-(4-(4,6-dimethoxy-5-pyrimidinyl)-5-(6-methoxy-2-pyridinyl)-4H-1,2,4-triazol-3-yl)-3-piperidinesulfonamide]: the EC50 was determined as 0.00089 µM. Same read-out and setting: the same measure for `COc1cccc(-c2nnc(NS(=O)(=O)CC3CC3)n2-c2c(OC)cccc2OC)n1` [Example 832.0, 1-cyclopropyl-N-(4-(2,6-dimethoxyphenyl)-5-(6-methoxy-2-pyridinyl)-4H-1,2,4-triazol-3-yl)methanesulfonamide]: 0.11 µM.

As to `COc1cccc(-c2nnc(NS(=O)(=O)[C@@H](C)[C@H](C)c3ncc(Cl)cn3)n2C2CCOCC2)n1` [Example 835.0, (2S,3R)-3-(5-chloro-2-pyrimidinyl)-N-(5-(6-methoxy-2-pyridinyl)-4-(tetrahydro-2H-pyran-4-yl)-4H-1,2,4-triazol-3-yl)-2-butanesulfonamide], the EC50 stood at 0.013 µM. Still for that read-out and setting: the same measure for `COc1cccc(-c2nnc(NS(=O)(=O)[C@@H](C)[C@H](OC)c3ncc(Cl)cn3)n2C2CCOCC2)n1` [Example 836.0, (1R,2S)-1-(5-chloro-2-pyrimidinyl)-1-methoxy-N-(5-(6-methoxy-2-pyridinyl)-4-(tetrahydro-2H-pyran-4-yl)-4H-1,2,4-triazol-3-yl)-2-propanesulfonamide]: 0.0029 µM. Still for that read-out and setting: then `COc1cccc(-c2nnc(NS(=O)(=O)[C@@H](C)[C@@H](OC(C)C)c3ncc(C)cn3)n2C2CCOCC2)n1` [Example 837.0, (1S,2S)-N-(5-(6-methoxy-2-pyridinyl)-4-(tetrahydro-2H-pyran-4-yl)-4H-1,2,4-triazol-3-yl)-1-(1-methylethoxy)-1-(5-methyl-2-pyrimidinyl)-2-propanesulfonamide], with 0.0051 µM. Regarding `COc1cccc(-c2nnc(NS(=O)(=O)[C@@H](C)[C@H](C)c3ccc(Cl)cn3)n2C2CCOCC2)n1` [Example 840.0, (2S,3R)-3-(5-chloro-2-pyridinyl)-N-(5-(6-methoxy-2-pyridinyl)-4-(tetrahydro-2H-pyran-4-yl)-4H-1,2,4-triazol-3-yl)-2-butanesulfonamide], the EC50 is 0.013 µM.

Turning to `COc1cccc(-c2nnc(NS(=O)(=O)[C@@H](C)[C@H](OC)c3ccc(Cl)cn3)n2C2CCOCC2)n1` [Example 841.0, (1R,2S)-1-(5-chloro-2-pyridinyl)-1-methoxy-N-(5-(6-methoxy-2-pyridinyl)-4-(tetrahydro-2H-pyran-4-yl)-4H-1,2,4-triazol-3-yl)-2-propanesulfonamide], the EC50 stood at 0.0086 µM. Turning to `COc1cnc([C@@H](C)[C@H](C)S(=O)(=O)Nc2nnc(-c3cccc(OC)n3)n2C2CCOCC2)nc1` [Example 842.0, (2S,3R)-N-(5-(6-methoxy-2-pyridinyl)-4-(tetrahydro-2H-pyran-4-yl)-4H-1,2,4-triazol-3-yl)-3-(5-methoxy-2-pyrimidinyl)-2-butanesulfonamide], the EC50 was 0.14 µM. Same read-out and setting: the same measure for `COc1cccc(-c2nnc(NS(=O)(=O)[C@@H](C)[C@H](C)c3cnc(C)cn3)n2C2CCOCC2)n1` [Example 843.0, (2S,3R)-N-(5-(6-methoxy-2-pyridinyl)-4-(tetrahydro-2H-pyran-4-yl)-4H-1,2,4-triazol-3-yl)-3-(5-methyl-2-pyrazinyl)-2-butanesulfonamide]: 0.97 µM; for `COc1cnc([C@@H](C)[C@H](C)S(=O)(=O)Nc2nnc(-c3cccc(OC)n3)n2C2CCOCC2)cn1` [Example 844.0, (2S,3R)-3-(5-methoxy-2-pyrazinyl)-N-(5-(6-methoxy-2-pyridinyl)-4-(tetrahydro-2H-pyran-4-yl)-4H-1,2,4-triazol-3-yl)-2-butanesulfonamide]: 0.086 µM.

As to “(2S)-N-(4-(2,6-dimethoxyphenyl)-5-(5-methoxy-2-pyridinyl)-4H-1,2,4-triazol-3-yl)-1-(5-fluoro-2-pyrimidinyl)-2-propanesulfonamide and (2R)-N-(4-(2,6-dimethoxyphenyl)-5-(5-methoxy-2-pyridinyl)-4H-1,2,4-triazol-3-yl)-1-(5-fluoro-2-pyrimidinyl)-2-propanesulfonamide [Example 153.0]”, the EC50 amounted to 0.16 µM.

In another assay the test system is isolated perfused rat hearts. Put plainly: Langendorff isolated perfused rat heart (left ventricular dP/dt). The following applies: ex vivo naive Sprague Dawley rat hearts, Langendorff apparatus, as a function of concentration.
As to `COc1cccc(OC)c1-n1c(NS(=O)(=O)[C@@H](C)[C@H](O)c2ncc(C)cn2)nnc1-c1cncc(C)c1` [Example 371.0, (1R,2S)—N-(4-(2,6-dimethoxyphenyl)-5-(5-methylpyridin-3-yl)-4H-1,2,4-triazol-3-yl)-1-hydroxy-1-(5-methylpyrimidin-2-yl)propane-2-sulfonamide], the “left ventricular dP/dtmax (load independent cardiac contractility)” value is listed as “increases load independent cardiac contractility” and the “left ventricular dP/dtmin (load independent cardiac relaxation)” value is “increases load independent cardiac relaxation”.

The next assay deals with isolated perfused rat hearts. The assay can be described thus: Load independent inotropic effects, ex vivo assay (isolated perfused rat hearts, Langendorff). The following applies: percent change over vehicle. From the text:
Evidence for Load Independent Inotropic Effects with APJ Agonists using Ex Vivo Assay (Isolated Perfused Rat Hearts)
Naive Sprague Dawley® SD rats (Harlan laboratories (Livermore, Calif. USA)) were anesthetized and hearts were excised followed by cannulation in the Langendorff apparatus (Harvard apparatus, Holliston, Mass. USA) via aorta. […] The pressure of the solution causes the aortic valve to shut and the perfusate is then forced into the ostium and the coronary vessels. This allows the heart to beat for several h. A balloon was inserted into the left ventricle (LV) to measure dP/dtmax (derivative of left ventricular pressure) as an index of cardiac contractility. The APJ agonist was perfused constantly in a dose dependent manner into the heart to examine cardiac contractility.
As to `COc1cccc(OC)c1-n1c(NS(=O)(=O)[C@H](C)[C@@H](OC)c2ccc(Cl)cn2)nnc1-c1cccnc1` (single isomer, unassigned) [Example 531.0, (1S,2R)-1-(5-chloro-2-pyridinyl)-N-(4-(2,6-dimethoxyphenyl)-5-(3-pyridinyl)-4H-1,2,4-triazol-3-yl)-1-methoxy-2-propanesulfonamide or (1R,2S)-1-(5-chloro-2-pyridinyl)-N-(4-(2,6-dimethoxyphenyl)-5-(3-pyridinyl)-4H-1,2,4-triazol-3-yl)-1-methoxy-2-propanesulfonamide], the “Isolated Heart Assay dP/dtmax (%)” value was 4.1% and the “Isolated Heart Assay dP/dtmin (%)” value stood at 1.9%. In the same order, the values of `Cc1cnc([C@@H](C)[C@H](C)S(=O)(=O)Nc2nnc(-c3cncc(C)c3)n2-c2c(F)cccc2F)nc1` [Example 826.0, (2S,3R)-N-(4-(2,6-difluorophenyl)-5-(5-methyl-3-pyridinyl)-4H-1,2,4-triazol-3-yl)-3-(5-methyl-2-pyrimidinyl)-2-butanesulfonamide, (2R,3S)-N-(4-(2,6-difluorophenyl)-5-(5-methyl-3-pyridinyl)-4H-1,2,4-triazol-3-yl)-3-(5-methyl-2-pyrimidinyl)-2-butanesulfonamide] are 6.02% and 5.16%.
